From publication PMC5320730, “Synthetic curcumin derivative DK1 possessed G2/M arrest and induced apoptosis through accumulation of intracellular ROS in MCF-7 breast cancer cells” (Cancer Cell International, 2017) come the findings set out here.

The term IC50 denotes the point on the concentration scale where inhibition reaches its midpoint.

The test system of test [1] is MCF-7 cells. As to the kind of experiment: Flow cytometry AnnexinV-FITC/PI apoptosis analysis. The format is cell-based, human. The following applies: MCF-7, 25 µM, 72 h, AnnexinV/PI. The protocol:
Apoptosis of DK1 treated MCF-7 was compared with the control cell by Flow cytometry AnnexinV-FITC/PI apoptosis assay. Briefly, harvested cells were resuspended in 100 μL of 1× binding buffer and stained with 5 μL each of AnnexinV-FITC and propidiumiodide. After 15 min of incubation, the cells were added with 400 μL of 1× binding buffer and subjected to BD FACS Calibur flow cytometer analysis using BD Cell Quest Pro software (Becton–Dickinson, USA).

The test system of test [2] is MCF-10A cells. The test can be described thus: MTT cell viability assay, normal MCF-10A. The format is cell-based. The note with it: Homo sapiens. The protocol:
(§1) Promyelocytic leukemia HL60, hepatoblastoma HepG2, breast cancer MCF-7 and MDA-MB-231 cells were purchased from ATCC (USA) and cultured in RPMI-1640 media (Sigma, USA), supplemented with 10% fetal bovine serum (FBS) (PAA, USA). Normal epithelial MCF-10A cells (ATCC, USA) was maintain in DMEM-F12 (Sigma, USA) supplemented with hydrocortisone (0.5 μg/mL), insulin (10 μg/mL), human epidermal growth factor (hEGF) (20 ng/mL) (Sigma, USA) and 10% FBS (PAA, USA).
(§2) MTT cell viability assay was used to evaluate the effect of DK1 on viability of HL-60, HepG2, MCF-7, MDA-MB-231 and MCF-10A cells. Briefly, each type of cells (8 × 10^4cells/well) was seeded in 96-well plate in 37 °C CO2 incubator overnight. Then, DK1 was added at concentration ranging between 200 and 3.125 µM by twofold serial dilution. Untreated control was prepared simultaneously. After that, the cells were incubated for 24, 48 and 72 h at 37 °C in 5% CO2 incubator. After the incubation period, all well was added with 20 μL of MTT solution (5 mg/mL) and further incubated for 3 h. Subsequently, 170 μL of supernatant from each well was discarded, 100 μL of dimethyl sulfoxide (DMSO) was added to solubilize the purple formazan crystal and the absorbance was measured at a wavelength of 570 nm by Enzyme-linked immunosorbent assay (ELISA) plate reader (Bio-tek instruments, USA). All cell lines were assayed for three biological replicates each with triplicates. Percentage of cell viability was calculated using the following formula: Cell viability%=OD sample/OD control×100%
(§3) IC50 value (concentration of DK1 that reduce 50% of cell viability compared to control cell) was determined from the graph of cell viability (%) vs DK1 concentration. Subsequently, selective index, which indicating selectivity of DK1 against cancerous and normal breast cell lines, was calculated by: Selective indexSI=IC50of DK1on normal MCF-10A cell line/IC50on breast cancerous cell lineHL60/HepG2/MCF-7/MDA-MB-231

Test [3] relates to GSH in MCF-7 cells. As to the kind of experiment: Intracellular glutathione (GSH) quantification. The format is cell-based, human. The note with it: MCF-7, 25 µM. The protocol:
Harvested cell was subjected to two times of freeze and thaw in 100 μL of PBS. The lysed cell was then pelleted and the supernatant was subjected to GSH and ROS quantification using Glutathione assay kit (Sigma, USA) and OxiSelect ROS assay kit (Cell Biolabs, USA) according to manufacturers’ protocol.
For GSH quantification, 10 μL of cell lysate supernatant was added with 150 μL of working solution (1.5 mg/mL DTNB solution, 6 units/mL glutathione reductase and 1× assay buffer), incubated for 5 min and added with 50 μL of NADPH solution (0.16 mg/mL). The absorbance was read at a wavelength of 412 nm by ELISA plate reader (Bio-Tek instrument, USA) for every minute in duration of 5 min. For intracellular ROS quantification, supernatant was added with 10 μM DCFH-DA for 30 min at 37 °C. Then, the fluorescence intensity of DCFH-DA was measured using microplate fluorometer (Thermo Scientific, USA) with a 485/538 nm filter. Fold change of GSH and ROS was calculated by dividing absorbance or fluorescence intensity of DK1 treated MCF-7 with untreated control MCF-7.

In test [4] the test system is MDA-MB-231 cells. The test can be described thus: MTT cell viability assay, MDA-MB-231. The format is cell-based, human. The following applies: for IC50: Homo sapiens, MDA-MB-231, MTT. The protocol:
as §1, §2, §3
(In general: Tetrazolium dyes change colour on reduction, which living cells bring about.)

The test system of test [5] is CDC2 and phospho-CDC2 (Tyr15) in MCF-7 cells. As to the kind of experiment: Western blot analysis of CDC2 and p-CDC2 (Tyr15). Format: cell-based, human. The note with it: MCF-7, 25 µM, 48 and 72 h. How it is done:
Total protein was extracted from harvested cell with Radioimmunoprecipitation assay (RIPA) buffer supplemented with phosphatase inhibitor cocktail (Roche, Canada) and the concentration was quantified by Bradford assay (Sigma, USA). Then, 100 μg of extracted protein was subjected to sodium dodecyl sulfate polyacrylamide gel electrophoresis (SDS-PAGE) (Bio-Rad, USA), transferred to nitrocellulose membrane, block with 0.5% skimmed milk overnight, washed with Tris-buffered saline tween (TBST) buffer and incubated with primary antibodies (anti-CDC2, anti-pCDC2 (Tyr15), anti-p53, and anti-β-actin at a dilution of 1:1000 (Abcam, USA) for 1 h. After that, membranes were washed, incubated with 1:5000 diluted goat anti-rabbit IgG H&L conjugated to […] (Abcam, USA) and developed under chemiluminescence condition (Super Signal West Pico, Pierce, USA) using the ChemiDoc XRS (Bio-Rad, USA). Differential level of evaluated protein in control and DK1 treated MCF-7 was calculated based on the bands intensity analyzed using the Quantity One 1D Analysis software (Bio-rad, USA).

Test [6] has as its system MCF-7 cells. As to the kind of experiment: Flow cytometry cell cycle analysis (PI). The format is cell-based, human. The following applies: MCF-7, 25 µM. The protocol:
Cell cycle progression of control and DK1 treated MCF-7 was analysed using BD FACS Calibur flow cytometer (Becton–Dickinson, USA). Briefly, harvested cells were added with 250 μL of trypsin buffer with 10 min incubation, followed by 200 μL of trypsin inhibitor with RNase buffer with 10 min incubation, and finally stained with 200 μL of propidium iodide (PI) from BD Cycletest Plus kit (Becton–Dickinson, USA). All stained cells were subjected to BD FACS Calibur flow cytometer analysis using BD Cell Quest Pro software (Becton–Dickinson, USA).
Background: In flow cytometry, cells or beads pass a laser one at a time.

On to `O=C(/C=C(\O)c1ccccc1)c1ccccc1O` [DK1, (Z)-3-hydroxy-1-(2-hydroxyphenyl)-3-phenylprop-2-en-1-one], for which the early apoptosis in test [1] is given as ~ 14%. The late apoptosis in test [1] is ~ 39%. Besides, the IC50 in test [2] (24 h) was more than 208 µM; in test [2] (48 h), 126 ± 3.67 µM; in test [2] (72 h), 104 ± 5.21 µM; in test [4] (24 h), 104 ± 5.23 µM; in test [4] (48 h), 45.8 ± 4.66 µM; in test [4] (72 h), 37.5 ± 4.82 µM. Moreover, the “reduction of GSH level compared to control” value in test [3] (48 h) is ~ 2.2 fold; in test [3] (72 h), ~ 3.3 fold. Also, the “Selective index of MCF-10A/MDA” value is on record as more than 2.00 in test [4] (IC50 MCF-10A / IC50 MDA-MB-231, 24 h); 2.72 in test [4] (IC50 MCF-10A / IC50 MDA-MB-231, 48 h); 2.77 in test [4] (IC50 MCF-10A / IC50 MDA-MB-231, 72 h). For the same molecule, the SI values result in test [4] (MDA-MB-231, overall statement) is listed as “higher than 2”. Besides, the CDC2 protein level entry in test [5] is given as “reduction”. Further, the “phospho-CDC2 (Tyr15) protein level” value in test [5] was “accumulation”. In addition, the “percentage of cell population in G2/M phase” value is ~ 25% in test [6] (24 h (control ~18%)), ~ 26% in test [6] (48 h (control ~18%)) and ~ 31% in test [6] (72 h (control ~18%)).
